Assay results as given in article PMC3044687, “The C-Terminal Domain of the Arabinosyltransferase Mycobacterium tuberculosis EmbC Is a Lectin-Like Carbohydrate Binding Module” (PLoS Pathogens, 2011).

Key:
Format in all cases: binding
EmbC^CT(W985A) = EmbC^CT(W985A) (Mycobacterium tuberculosis, UniProt P9WNL5, W985A)
EmbC^CT(W868A) = EmbC^CT(W868A) (Mycobacterium tuberculosis, UniProt P9WNL5, W868A)
EmbC^CT(H911A) = EmbC^CT(H911A) (Mycobacterium tuberculosis, UniProt P9WNL5, H911A)
EmbC^CT(N740A) = EmbC^CT(N740A) (Mycobacterium tuberculosis, UniProt P9WNL5, N740A)

SMILES	Fmax (EmbC^CT(W985A))	effect of W985A mutation on ligand binding (in words) (EmbC^CT(W985A))	effect of W868A mutation on ligand binding (in words) (EmbC^CT(W868A))	Fmax (EmbC^CT(H911A))	Fmax (EmbC^CT(N740A))	Fmax (EmbC^CT(W868A))
CCCCCCCCO[C@H]1O[C@H](CO[C@H]2O[C@H](CO[C@H]3O[C@H](CO[C@H]4O[C@H](CO[C@H]5O[C@H](CO)[C@@H](O)[C@@H]5O)[C@@H](O)[C@@H]4O)[C@@H](O)[C@@H]3O)[C@@H](O)[C@@H]2O)[C@@H](O)[C@@H]1O [Ara(1→5)4Ara-O-C8, [α-D-Araf-(1→5)]4-α-D-Araf-O-(CH2)7CH3]	0.164	insensitive	completely inhibited	–	–	–
CCCCCCCCO[C@H]1O[C@H](CO[C@H]2O[C@H](CO)[C@@H](O)[C@@H]2O)[C@@H](O)[C@@H]1O [Ara(1→5)Ara-O-C8, α-D-Araf-(1→5)-α-D-Araf-O-(CH2)7CH3]	–	virtually abrogated binding	preserved binding	0.170	0.141	0.162
